ChEMBL document CHEMBL3885881, “DrugMatrix”

Species on record: Rattus norvegicus
Assay: DrugMatrix - Regimen: Daily Repeat
Format: toxicity, organism-based, Sprague-Dawley
Parameters: regimen Daily Repeat, gender Male, age 6-8 weeks
Settings: in vivo, po, route oral GAVAGE, vehicle 100 % WATER; for ABSOLUTE BASOPHIL / ABSOLUTE EOSINOPHIL / ABSOLUTE LYMPHOCYTE / ABSOLUTE MONOCYTE / ABSOLUTE SEGMENTED NEUTROPHIL / BASOPHIL / EOSINOPHIL / ERYTHROCYTE COUNT / HEMATOCRIT / HEMOGLOBIN / LEUKOCYTE COUNT / LYMPHOCYTE / MEAN CORPUSCULAR HEMOGLOBIN / MEAN CORPUSCULAR HEMOGLOBIN CONCENTRATION / MEAN CORPUSCULAR VOLUME / MONOCYTE / NEUTROPHIL / NUCLEATED RED BLOOD CELLS / PLATELET COUNT: tissue Blood; for ALANINE AMINOTRANSFERASE / ALBUMIN / ALKALINE PHOSPHATASE / ASPARTATE AMINOTRANSFERASE / BLOOD UREA NITROGEN / CARBON DIOXIDE / CHLORIDE / CHOLESTEROL / CREATINE PHOSPHOKINASE / CREATININE / GLUCOSE / LACTATE DEHYDROGENASE / LIPASE / PHOSPHORUS / POTASSIUM / SODIUM / TOTAL BILIRUBIN / TOTAL PROTEIN / URIC ACID: tissue Plasma
[1] = 0 mg/kg, 72 h, dose level Control, time 3 day
[2] = 0 mg/kg, 120 h, dose level Control, time 5 day
[3] = 1000 mg/kg, 72 h, dose level High, time 3 day
[4] = 1000 mg/kg, 120 h, dose level High, time 5 day

Q: Which results are given for `Cc1cc(NS(=O)(=O)c2ccc(N)cc2)no1` [SULFAMETHOXAZOLE]?
A: ABSOLUTE BASOPHIL [1]: 0 CELLS/uL; ABSOLUTE EOSINOPHIL [1]: 102 CELLS/uL; ABSOLUTE LYMPHOCYTE [1]: 12758 CELLS/uL; ABSOLUTE MONOCYTE [1]: 197.17 CELLS/uL; ABSOLUTE SEGMENTED NEUTROPHIL [1]: 1259.5 CELLS/uL; BASOPHIL [1]: 0%; EOSINOPHIL [1]: 0.83%; ERYTHROCYTE COUNT [1]: 5.3 x10E6/uL; HEMATOCRIT [1]: 33.47%; HEMOGLOBIN [1]: 13.12 G/DL; LEUKOCYTE COUNT [1]: 14.32 x10E3/uL; LYMPHOCYTE [1]: 89.33%; MEAN CORPUSCULAR HEMOGLOBIN [1]: 24.8 pg; MEAN CORPUSCULAR HEMOGLOBIN CONCENTRATION [1]: 39.18 G/DL; MEAN CORPUSCULAR VOLUME [1]: 63.25 fL; MONOCYTE [1]: 1.33%; NEUTROPHIL [1]: 8.5%; NUCLEATED RED BLOOD CELLS [1]: 0 /100WBC; PLATELET COUNT [1]: 1313.17 x10E3/uL; ALANINE AMINOTRANSFERASE [1]: 52.67 u/L; ALBUMIN [1]: 4.05 G/DL; ALKALINE PHOSPHATASE [1]: 372 u/L; ASPARTATE AMINOTRANSFERASE [1]: 82.83 u/L; BLOOD UREA NITROGEN [1]: 15 mg/dL; CARBON DIOXIDE [1]: 25.67 mmol/L; CHLORIDE [1]: 102.17 MEQ/L; CHOLESTEROL [1]: 68.83 mg/dL; CREATINE PHOSPHOKINASE [1]: 285 u/L; CREATININE [1]: 0.18 mg/dL; GLUCOSE [1]: 149.17 mg/dL; LACTATE DEHYDROGENASE [1]: 263.83 u/L; LIPASE [1]: 10.17 u/L; PHOSPHORUS [1]: 12.58 mg/dL; POTASSIUM [1]: 6.58 MEQ/L; SODIUM [1]: 144.22 MEQ/L; TOTAL BILIRUBIN [1]: 0.22 mg/dL; TOTAL PROTEIN [1]: 5.83 G/DL; URIC ACID [1]: 1.58 mg/dL; ABSOLUTE BASOPHIL [2]: 0 CELLS/uL; ABSOLUTE EOSINOPHIL [2]: 24 CELLS/uL; ABSOLUTE LYMPHOCYTE [2]: 11134.17 CELLS/uL; ABSOLUTE MONOCYTE [2]: 56.33 CELLS/uL; ABSOLUTE SEGMENTED NEUTROPHIL [2]: 1235.5 CELLS/uL; BASOPHIL [2]: 0%; EOSINOPHIL [2]: 0.17%; ERYTHROCYTE COUNT [2]: 5.68 x10E6/uL; HEMATOCRIT [2]: 35.72%; HEMOGLOBIN [2]: 13.93 G/DL; LEUKOCYTE COUNT [2]: 12.45 x10E3/uL; LYMPHOCYTE [2]: 89.5%; MEAN CORPUSCULAR HEMOGLOBIN [2]: 24.63 pg; MEAN CORPUSCULAR HEMOGLOBIN CONCENTRATION [2]: 39.13 G/DL; MEAN CORPUSCULAR VOLUME [2]: 62.97 fL; MONOCYTE [2]: 0.5%; NEUTROPHIL [2]: 9.83%; NUCLEATED RED BLOOD CELLS [2]: 0 /100WBC; PLATELET COUNT [2]: 1204 x10E3/uL; ALANINE AMINOTRANSFERASE [2]: 59.5 u/L; ALBUMIN [2]: 4.38 G/DL; ALKALINE PHOSPHATASE [2]: 415.67 u/L; ASPARTATE AMINOTRANSFERASE [2]: 91.33 u/L; BLOOD UREA NITROGEN [2]: 17 mg/dL; CARBON DIOXIDE [2]: 26.33 mmol/L; CHLORIDE [2]: 104.17 MEQ/L; CHOLESTEROL [2]: 77 mg/dL; CREATINE PHOSPHOKINASE [2]: 249.67 u/L; CREATININE [2]: 0.21 mg/dL; GLUCOSE [2]: 148.33 mg/dL; LACTATE DEHYDROGENASE [2]: 168.5 u/L; LIPASE [2]: 10.17 u/L; PHOSPHORUS [2]: 12.92 mg/dL; POTASSIUM [2]: 7.09 MEQ/L; SODIUM [2]: 148.37 MEQ/L; TOTAL BILIRUBIN [2]: 0.23 mg/dL; TOTAL PROTEIN [2]: 6.3 G/DL; URIC ACID [2]: 1.77 mg/dL; ABSOLUTE BASOPHIL [3]: 0 CELLS/uL; ABSOLUTE EOSINOPHIL [3]: 124.33 CELLS/uL; ABSOLUTE LYMPHOCYTE [3]: 12097 CELLS/uL; ABSOLUTE MONOCYTE [3]: 47.67 CELLS/uL; ABSOLUTE SEGMENTED NEUTROPHIL [3]: 1331 CELLS/uL; BASOPHIL [3]: 0%; EOSINOPHIL [3]: 1%; ERYTHROCYTE COUNT [3]: 5.34 x10E6/uL; HEMATOCRIT [3]: 34.63%; HEMOGLOBIN [3]: 13.53 G/DL; LEUKOCYTE COUNT [3]: 13.6 x10E3/uL; LYMPHOCYTE [3]: 89%; MEAN CORPUSCULAR HEMOGLOBIN [3]: 25.37 pg; MEAN CORPUSCULAR HEMOGLOBIN CONCENTRATION [3]: 39.07 G/DL; MEAN CORPUSCULAR VOLUME [3]: 64.87 fL; MONOCYTE [3]: 0.33%; NEUTROPHIL [3]: 9.67%; NUCLEATED RED BLOOD CELLS [3]: 0 /100WBC; PLATELET COUNT [3]: 1220 x10E3/uL; ALANINE AMINOTRANSFERASE [3]: 53.33 u/L; ALBUMIN [3]: 4.13 G/DL; ALKALINE PHOSPHATASE [3]: 298.33 u/L; ASPARTATE AMINOTRANSFERASE [3]: 88.67 u/L; BLOOD UREA NITROGEN [3]: 16 mg/dL; CARBON DIOXIDE [3]: 26 mmol/L; CHLORIDE [3]: 101 MEQ/L; CHOLESTEROL [3]: 79.67 mg/dL; CREATINE PHOSPHOKINASE [3]: 356.33 u/L; CREATININE [3]: 0.17 mg/dL; GLUCOSE [3]: 141.33 mg/dL; LACTATE DEHYDROGENASE [3]: 488.67 u/L; LIPASE [3]: 10.67 u/L; PHOSPHORUS [3]: 12.43 mg/dL; POTASSIUM [3]: 6.92 MEQ/L; SODIUM [3]: 145.43 MEQ/L; TOTAL BILIRUBIN [3]: 0.2 mg/dL; TOTAL PROTEIN [3]: 6.07 G/DL; URIC ACID [3]: 1.63 mg/dL; ABSOLUTE BASOPHIL [4]: 0 CELLS/uL; ABSOLUTE EOSINOPHIL [4]: 0 CELLS/uL; ABSOLUTE LYMPHOCYTE [4]: 14525.67 CELLS/uL; ABSOLUTE MONOCYTE [4]: 88 CELLS/uL; ABSOLUTE SEGMENTED NEUTROPHIL [4]: 1019.67 CELLS/uL; BASOPHIL [4]: 0%; EOSINOPHIL [4]: 0%; ERYTHROCYTE COUNT [4]: 4.62 x10E6/uL; HEMATOCRIT [4]: 29.8%; HEMOGLOBIN [4]: 12.13 G/DL; LEUKOCYTE COUNT [4]: 15.63 x10E3/uL; LYMPHOCYTE [4]: 94%; MEAN CORPUSCULAR HEMOGLOBIN [4]: 26.43 pg; MEAN CORPUSCULAR HEMOGLOBIN CONCENTRATION [4]: 40.77 G/DL; MEAN CORPUSCULAR VOLUME [4]: 64.9 fL; MONOCYTE [4]: 0.33%; NEUTROPHIL [4]: 5.67%; NUCLEATED RED BLOOD CELLS [4]: 0 /100WBC; PLATELET COUNT [4]: 1090.33 x10E3/uL; ALANINE AMINOTRANSFERASE [4]: 53.33 u/L; ALBUMIN [4]: 4.1 G/DL; ALKALINE PHOSPHATASE [4]: 272.5 u/L; ASPARTATE AMINOTRANSFERASE [4]: 97 u/L; BLOOD UREA NITROGEN [4]: 17 mg/dL; CARBON DIOXIDE [4]: 21 mmol/L; CHLORIDE [4]: 107.5 MEQ/L; CHOLESTEROL [4]: 73 mg/dL; CREATINE PHOSPHOKINASE [4]: 1048.33 u/L; CREATININE [4]: 0.21 mg/dL; GLUCOSE [4]: 149 mg/dL; LACTATE DEHYDROGENASE [4]: 184 u/L; LIPASE [4]: 12 u/L; PHOSPHORUS [4]: 10.23 mg/dL; POTASSIUM [4]: 6.38 MEQ/L; SODIUM [4]: 147.2 MEQ/L; TOTAL BILIRUBIN [4]: 0.2 mg/dL; TOTAL PROTEIN [4]: 5.97 G/DL; URIC ACID [4]: 1.2 mg/dL
